A short description of this assay: NACME arylation rate constant (NMR). Type of assay: physicochemical. The source says: We employed nuclear magnetic resonance (NMR) and UV–vis to quantify the reactivity of our 2-SP derivatives and other representative electrophiles (Figure 2) against cysteine. NMR allowed straightforward determination of reaction rate constants through dual monitoring of the consumption of the warhead and formation of the product by integration of their respective NMR signals (Figures S1–S3). It simultaneously provided a direct readout on reaction specificity and hydrolytic stability of the warhead. All measurements were carried out in KPi buffer in the presence of 5% d^6-dmso, which is generally well-tolerated by a wide range of proteins in in vitro studies. N-acetylcysteine methylester (NACME) and L-glutathione (GSH) are useful model cysteine nucleophiles for in vitro studies of electrophilic agents.[32] Mixing reference electrophile 2-methylsulfonylpyrimidine (4q) with NACME or GSH in a 1:10 ratio (pseudo-first-order conditions) allowed extraction of accurate and reproducible second order rate constants (k). At pH 7.0, quantitative arylation of NACME occurred […] (k ≈ 4.5 × 10^–2 M^–1 s^–1), whereas GSH reacted approximately 3 times slower (k ≈ 1.6 × 10^–2 M^–1 s^–1; Figures S1–S3). […]
transferred to the NMR instrument for acquisition. 1H spectra (16 scans) were recorded every 10 minutes under water suppression conditions. Following acquisition, spectra were analysed using […]

Molecules are shown by their SMILES.

Take `CS(=O)(=O)c1ncccn1` [4q, 2-methylsulfonylpyrimidine]: the “times faster at pH 7.0 vs 6.5” value (NACME) was “approximately 5 times”. Also, the “second order rate constant k with NACME” value (pH 7.0, 1:10 ratio) was “≈ 4.5 × 10^–2 M^–1 s^–1”.

The record behind these values is PMC10515483, “Structure–Reactivity Studies of 2-Sulfonylpyrimidines Allow Selective Protein Arylation” (Bioconjugate Chemistry, 2023).
